This is an account of results in patent EP4745134A1 (Jiangsu Yahong Meditech Co., Ltd., priority 2023, dated 2025).

Read-outs that look alike come from different tables or passages of the source.

In one experiment the target is PRMT5-MTA (Homo sapiens, UniProt O14744). Put plainly: Enzymatic inhibitory activity against PRMT5-MTA (AlphaScreen). It counts as biochemical. The gist of the method: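 PRMT5/[…] (1 nM) was preincubated for 30 min at room temperature with 1 µM […] and 2.5 µM SAM, then exposed to compound (10-point, 3-fold from 1000 nM) for 15 min at 23 °C. Histone H4 substrate (5 nM) was added and reacted for 45 min at 23 °C. Symmetric dimethyl-R3 H4 was detected by AlphaScreen and IC50 calculated.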
Sequence of PRMT5-MTA (O14744 whole entry): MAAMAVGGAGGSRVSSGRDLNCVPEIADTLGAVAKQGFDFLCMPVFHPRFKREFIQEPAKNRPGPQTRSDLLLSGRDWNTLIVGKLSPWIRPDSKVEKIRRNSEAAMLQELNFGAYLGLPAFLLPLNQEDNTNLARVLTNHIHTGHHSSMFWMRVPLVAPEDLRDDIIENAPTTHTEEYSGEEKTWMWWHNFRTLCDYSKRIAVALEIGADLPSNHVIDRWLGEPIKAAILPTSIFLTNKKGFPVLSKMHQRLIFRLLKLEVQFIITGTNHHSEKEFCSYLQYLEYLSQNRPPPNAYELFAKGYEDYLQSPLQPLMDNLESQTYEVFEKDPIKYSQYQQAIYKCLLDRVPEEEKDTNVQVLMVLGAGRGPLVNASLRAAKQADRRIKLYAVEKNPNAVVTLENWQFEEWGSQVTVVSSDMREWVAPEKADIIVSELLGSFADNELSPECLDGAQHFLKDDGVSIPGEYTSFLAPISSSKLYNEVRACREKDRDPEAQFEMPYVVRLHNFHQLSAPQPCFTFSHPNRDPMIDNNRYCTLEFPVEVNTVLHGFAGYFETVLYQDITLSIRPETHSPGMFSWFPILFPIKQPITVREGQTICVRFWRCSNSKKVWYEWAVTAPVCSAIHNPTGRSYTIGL
Sequence of PRMT5-MTA (Q9BQA1 whole entry partner): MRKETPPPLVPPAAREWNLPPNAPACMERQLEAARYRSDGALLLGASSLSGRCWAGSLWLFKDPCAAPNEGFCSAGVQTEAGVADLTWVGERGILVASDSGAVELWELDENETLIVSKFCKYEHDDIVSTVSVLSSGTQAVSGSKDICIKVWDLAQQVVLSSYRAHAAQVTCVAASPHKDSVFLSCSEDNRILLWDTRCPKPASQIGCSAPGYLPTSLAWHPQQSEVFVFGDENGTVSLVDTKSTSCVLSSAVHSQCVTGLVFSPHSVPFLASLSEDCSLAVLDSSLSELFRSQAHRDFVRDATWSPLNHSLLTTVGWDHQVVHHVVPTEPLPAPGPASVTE

In the next experiment the test system is HCT116 MTAP KO cells. Put plainly: Inhibitory activity against cell proliferation (CellTiter Glo, 6 days), HCT116 MTAP KO. It counts as cell-based. Conditions: for IC50: Homo sapiens, HCT-116, 144 h, HCT116 MTAP KO cells, 6 days, CellTiter Glo, read-out: HCT116 MTAP KO IC50; for Selectivity HCT 116-WT/ HCT116 MTAP KO: ratio of IC50 HCT116-WT / HCT116 MTAP KO. The gist of the method: (§1)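 Luminescence read-out (CellTiter Glo, 10 min shaking at room temperature) after 6 days of compound exposure; IC50 fitted against DMSO controls. Top dose 10000 nM, 4-fold steps, 8 points; 250 cells/well in McCoy's 5A + 10% FBS.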

The test system of another experiment is HCT116-WT cells. Briefly: Inhibitory activity against cell proliferation (CellTiter Glo, 6 days), HCT116-WT. It counts as cell-based. The following applies: 144 h, HCT116-WT cells, 6 days, CellTiter Glo; read-out: HCT116-WT IC50. The gist of the method: as §1

Turning to `Cc1cc2nc(N)c3cnn(C)c3c2cc1C(=O)N1CC(C)CN1c1ncc(-c2cnn(C(F)(F)F)c2)cc1F` (centres unmarked) [Example 472, (4-amino-1,7-dimethyl-1H-pyrazolo[4,3-c]quinolin-8-y1)(2-(3-fluoro-5-(1-(trifluor omethyl)-1H-pyrazol-4-yl)pyridin-2-yl)-4-methylpyrazolidin-1-yl)methanone], the figures for the IC50 on PRMT5-MTA (read-out: IC50), with HCT116 MTAP KO cells and in the experiment with HCT116-WT cells were 0.0046 µM, 0.03 µM and 0.971 µM, respectively. In addition, in the experiment on HCT116 MTAP KO cells, the “Selectivity HCT 116-WT/ HCT116 MTAP KO” value is on record as 32.37.

On to `COC1CN(C(=O)c2cc3c(cc2Cl)nc(N)c2cnn(C)c23)N(c2ccccc2F)C1` (centres unmarked) [Example 437, (4-amino-7-chloro-1-methyl-1H-pyrazolo [4,3-c]quinolin-8-yl)(2-(2-fluorophenyl)-4-methoxypyrazolidin-1-yl)methanone], for which the concentration for half-maximal inhibition (IC50) is 0.0047 µM on PRMT5-MTA (read-out: IC50), 0.013 µM in the experiment with HCT116 MTAP KO cells and 0.242 µM in the experiment on HCT116-WT cells. In addition, the “Selectivity HCT 116-WT/ HCT116 MTAP KO” value with HCT116 MTAP KO cells is 18.62.

Turning to `Cc1cc2nc(N)c3c(c2cc1C(=O)N1CC(C)CN1c1ncccc1F)COC3C` (centres unmarked) [Example 510], the results for the 50% inhibitory concentration (IC50) at PRMT5-MTA, with HCT116 MTAP KO cells and in the experiment on HCT116-WT cells were 0.0048 µM, 0.222 µM and 7.45 µM, respectively. Also, in the experiment on HCT116 MTAP KO cells, the “Selectivity HCT 116-WT/ HCT116 MTAP KO” value worked out at 33.55.

As to `Cc1cc2nc(N)c3cnn(C)c3c2cc1C(=O)N1CC(F)(F)CN1c1ncccc1F` [Example 455, (4-amino-1,7-dimethyl-1H-pyrazolo[4,3-c]quinolin-8-yl)(4,4-difluoro-2-(3-fluoropyridin-2-yl)pyrazolin-1-yl)methanone], the IC50 worked out at 0.0101 µM on PRMT5-MTA (read-out: IC50), 0.0095 µM in the experiment with HCT116 MTAP KO cells and 0.305 µM with HCT116-WT cells. Moreover, in the experiment with HCT116 MTAP KO cells, the “Selectivity HCT 116-WT/ HCT116 MTAP KO” value stood at 32.11.

As to `Cc1ccc(-c2ccc(CN(C(=O)c3ccc4nc(N)c(C)cc4c3)N(C)c3ncccn3)nc2)cn1` [Example 160, 2-amino-N',3-dimethyl-N-((6'-methyl-[3, 3'-bipyridine]-6-yl)methyl)-N'-(pyrimidin-2-yl)quinoline-6-carbohydrazide], the IC50 worked out at 0.002 µM at PRMT5-MTA (read-out: IC50), 0.027 µM in the experiment on HCT116 MTAP KO cells and 0.58 µM in the experiment on HCT116-WT cells. Also, the “Selectivity HCT 116-WT/ HCT116 MTAP KO” value in the experiment with HCT116 MTAP KO cells is reported as 21.48.

In the case of `C=C1CN(C(=O)c2cc3c(cc2Cl)nc(N)c2cnn(C)c23)N(c2ncc(Cl)cc2F)C1` [Example 434, (4-amino-7-chloro-1-methyl-1H-pyrazolo [4,3-c]quinolin-8-yl)(2-(5-chloro-3-fluoropyridin-2-yl)-4-methylenepyrazolidin-1-y 1)methanone], the IC50 at PRMT5-MTA (read-out: IC50) was 0.0061 µM; in the experiment with HCT116 MTAP KO cells, 0.036 µM; in the experiment on HCT116-WT cells it was 0.906 µM. Besides, the “Selectivity HCT 116-WT/ HCT116 MTAP KO” value in the experiment with HCT116 MTAP KO cells came to 25.17.

Consider `COc1cnc(N(C)N(Cc2ccc(C(F)(F)F)cn2)C(=O)c2ccc3nc(N)c(C)cc3c2)nc1` [Example 39, 2-amino-N'-(5-methoxypyrimidin-2-yl)-N',3-dimethyl-N-((5-(trifluoromethyl)pyridin-2-yl)methyl)quinoline-6-carbohydrazide], for which the 50% inhibitory concentration (IC50) on PRMT5-MTA (read-out: IC50) was determined as 0.0027 µM; in the experiment with HCT116 MTAP KO cells, 0.235 µM; with HCT116-WT cells, 3.75 µM. Also, in the experiment on HCT116 MTAP KO cells, the “Selectivity HCT 116-WT/ HCT116 MTAP KO” value was 15.95.

Take `Cc1cc2cc(C(=O)N(Cc3ccc(Br)cn3)N(C)c3ncccc3F)ccc2nc1N` [Example 48, 2-amino-N-((5-bromopyridin-2-yl)methyl)-N'-(3-fluoropyridin-2-yl)-N',3-dimethyl quinoline-6-carbohydrazide]: the half-inhibitory concentration (IC50) on PRMT5-MTA (read-out: IC50) was found to be 0.0037 µM; with HCT116 MTAP KO cells, 0.013 µM; in the experiment with HCT116-WT cells it was 0.466 µM. Moreover, the “Selectivity HCT 116-WT/ HCT116 MTAP KO” value with HCT116 MTAP KO cells is on record as 35.85.

Turning to `C=Cc1ccc(CN(C(=O)c2ccc3nc(N)c(C)cc3c2)N(C)c2ncccn2)nc1` [Example 188, 2-amino-N',3-dimethyl-N'-(pyrimidin-2-yl)-N-((5-vinylpyridin-2-yl)methyl)quinoline-6-carbohydrazide], the half-inhibitory concentration (IC50) at PRMT5-MTA (read-out: IC50) is 0.0027 µM; in the experiment on HCT116 MTAP KO cells, 0.126 µM; in the experiment on HCT116-WT cells, 2.83 µM. The “Selectivity HCT 116-WT/ HCT116 MTAP KO” value in the experiment on HCT116 MTAP KO cells is 22.44.

Regarding `C=C(C)c1cccnc1N(C)N(Cc1ccc(C(F)(F)F)cn1)C(=O)c1ccc2nc(N)c(C)cc2c1` [Example 135, 2-amino-N',3-dimethyl-N'-(3-(prop-1-en-2-yl)pyridin-2-yl)-N-((5-(trifluoromethyl)pyridin-2-yl)methyl)quinoline-6-carbohy drazide], the IC50 at PRMT5-MTA (read-out: IC50) turned out to be 0.0032 µM; with HCT116 MTAP KO cells it was 0.163 µM; in the experiment with HCT116-WT cells, 2.08 µM. In addition, the “Selectivity HCT 116-WT/ HCT116 MTAP KO” value in the experiment with HCT116 MTAP KO cells is 12.75.

Take `Cc1cc2cc(C(=O)N(Cc3ccc(C(F)(F)F)cn3)N(C)c3c(F)cccc3F)ccc2nc1N` [Compound 116, 2-amino-N'-(2,6-difluorophenyl)-N',3-di methyl-N-((5-(trifluoromethyl)pyridin-2-yl)methyl)quinoline-6-carbohydrazide]: the results for the IC50 at PRMT5-MTA (read-out: IC50), in the experiment on HCT116 MTAP KO cells and in the experiment on HCT116-WT cells were 0.0047 µM, 0.078 µM and 2.95 µM, respectively. Further, in the experiment on HCT116 MTAP KO cells, the “Selectivity HCT 116-WT/ HCT116 MTAP KO” value was determined as 37.85.

For the molecule `[2H]C([2H])([2H])c1cc2cc(C(=O)N(Cc3ccc(C(F)(F)F)cn3)N(c3ncccn3)C([2H])([2H])[2H])ccc2nc1N` [Example 311, 2-amino-N',3-bis(methyl-D3)-N'-(pyrimidin-2-yl)-N-((5-(trifluoromethyl)pyridin-2-yl)methyl)quinoline-6-carbohydrazide], the 50% inhibitory concentration (IC50) was determined as 0.003 µM on PRMT5-MTA (read-out: IC50), 0.059 µM with HCT116 MTAP KO cells and 1.76 µM in the experiment on HCT116-WT cells. Also, in the experiment with HCT116 MTAP KO cells, the “Selectivity HCT 116-WT/ HCT116 MTAP KO” value worked out at 29.78.

In the case of `Cc1cc2cc(C(=O)N(Cc3ccc(-c4cncnc4)cn3)N(C)c3ncccn3)ccc2nc1N` [Example 193, 2-amino-N',3-dimethyl-N'-(pyrimidin-2-yl)-N-((5-(pyrimidin-5-yl)pyridin-2-yl)methyl)quinoline-6-carbohydrazide], the half-inhibitory concentration (IC50) is 0.0027 µM at PRMT5-MTA (read-out: IC50), 0.094 µM in the experiment on HCT116 MTAP KO cells and 2.38 µM in the experiment with HCT116-WT cells. The “Selectivity HCT 116-WT/ HCT116 MTAP KO” value in the experiment on HCT116 MTAP KO cells amounted to 25.35.

For the molecule `Cc1cc2cc(C(=O)N(Cc3ccc(-c4cnn(C5CC5)c4)cn3)N(C)c3ncccn3)ccc2nc1N` [Example 192, 2-amino-N-((5-(1-cyclopropyl-1H-pyrazol-4-yl)pyridin-2-yl)methyl)-N',3-dimethyl -N'-(pyrimidin-2-yl)quinoline-6-carbohydrazide], the values for the concentration for half-maximal inhibition (IC50) on PRMT5-MTA (read-out: IC50), in the experiment with HCT116 MTAP KO cells and with HCT116-WT cells were 0.0021 µM, 0.044 µM and 1.22 µM, respectively. Besides, in the experiment with HCT116 MTAP KO cells, the “Selectivity HCT 116-WT/ HCT116 MTAP KO” value turned out to be 27.66.

For the molecule `[2H]C([2H])([2H])c1cc2cc(C(=O)N(Cc3ccc(C(F)(F)F)cn3)N(C)c3nccc4nccnc34)ccc2nc1N` [Example 313, 2-amino-N'-methyl-3-(methyl-d3)-N'-(pyrido[3,4-b]pyrazin-5-yl)-N-((5-(trifluoromethyl)pyridin-2-yl)methyl)quinoline-6-c arbohydrazide], the half-inhibitory concentration (IC50) amounted to 0.0042 µM on PRMT5-MTA (read-out: IC50), 0.038 µM in the experiment on HCT116 MTAP KO cells and 0.508 µM in the experiment on HCT116-WT cells. Moreover, the “Selectivity HCT 116-WT/ HCT116 MTAP KO” value in the experiment on HCT116 MTAP KO cells was 13.37.

As for `Cc1cc2nc(N)c3cnn(C)c3c2cc1C(=O)N1CC(C)CN1c1ncncc1F` (centres unmarked) [Example 395, (4-amino-1,7-dimethyl-1H-pyrazolo[4,3-c]quinolin-8-yl)(2-(5-fluoropyrimidin-4-yl)-4-methylpyrazolidin-1-yl)methanone], the results for the IC50 at PRMT5-MTA (read-out: IC50), in the experiment with HCT116 MTAP KO cells and in the experiment with HCT116-WT cells were 0.0049 µM, 0.066 µM and 2.71 µM, respectively. The “Selectivity HCT 116-WT/ HCT116 MTAP KO” value in the experiment on HCT116 MTAP KO cells is given as 41.05.

With `Cc1cc2cc(C(=O)N(Cc3ccc(-c4ccc(C(F)(F)F)nc4)cn3)N(C)c3ncccn3)ccc2nc1N` [Example 154, 2-amino-N',3-dimethyl-N'-(pyrimidin-2-y 1)-N-((6'-(trifluoromethyl)-[3,3'-bipyridine]-6-yl)methyl)quinoline-6-carbohydrazide], the half-inhibitory concentration (IC50) on PRMT5-MTA (read-out: IC50) stood at 0.0016 µM; in the experiment on HCT116 MTAP KO cells, 0.06 µM; with HCT116-WT cells it was 0.833 µM. Besides, the “Selectivity HCT 116-WT/ HCT116 MTAP KO” value with HCT116 MTAP KO cells came to 13.88.

Turning to `Cc1cc2cc(C(=O)N(Cc3ccc(-c4cccnc4)cc3F)N(C)c3ncccn3)ccc2nc1N` [Example 177, 2-amino-N-(2-fluoro-4-(pyridin-3-yl)benzyl)-N',3-dimethyl-N'-(pyrimidin-2-yl)qu inoline-6-carbohydrazide], the IC50 was 0.0011 µM on PRMT5-MTA (read-out: IC50), 0.03 µM in the experiment on HCT116 MTAP KO cells and 0.936 µM with HCT116-WT cells. The “Selectivity HCT 116-WT/ HCT116 MTAP KO” value in the experiment with HCT116 MTAP KO cells is reported as 31.20.

In the case of `Cc1cc2cc(C(=O)N(Cc3ccc(C(F)(F)F)cn3)N3CCc4cccnc43)ccc2nc1N` [Example 22, 2-amino-N-(2,3-dihydro-1H-pyrrolo[2,3-b]pyridin-1-yl)-3-methyl-N-((5-(trifluoromethy 1)pyridin-2-yl)methyl)quinoline-6-carboxamide], the IC50 on PRMT5-MTA (read-out: IC50) was 0.0043 µM; in the experiment with HCT116 MTAP KO cells, 0.129 µM; in the experiment on HCT116-WT cells, 2.29 µM. In addition, the “Selectivity HCT 116-WT/ HCT116 MTAP KO” value in the experiment with HCT116 MTAP KO cells was 17.78.

In the case of `Cc1cc2cc(C(=O)N(Cc3ccc(C(C)F)cn3)N(C)c3ncccn3)ccc2nc1N` (centres unmarked) [Example 292, 2-amino-N-((5-(1-fluoroethyl)pyridin-2-yl)methyl)-N',3-dimethyl-N'-(pyrimidin-2-yl)q uinoline-6-carbohydrazide], the half-maximal inhibitory concentration (IC50) on PRMT5-MTA (read-out: IC50) amounted to 0.0014 µM; with HCT116 MTAP KO cells, 0.05 µM; in the experiment on HCT116-WT cells it was 1.52 µM. In the experiment with HCT116 MTAP KO cells, the “Selectivity HCT 116-WT/ HCT116 MTAP KO” value turned out to be 30.30.
